Reference: patent US20240368157A1, “FORMS AND COMPOSITIONS OF A JAK2 INHIBITOR” (Ajax Therapeutics, Inc., priority 2023, published 2024)

Assay: Caco2 Permeability Assay
Assay type: in vitro ADME
Details: human, Caco-2, pH 7.4; for Papp A→B at 2 h, 5 μM: apical to basolateral; for efflux ratio at 2 h, 5 μM: read-out: Efflux Ratio (ER)
Method: Preparation of Caco-2 Cells: 50 μL and 25 mL of cell culture medium are added to each well of a Transwell® insert and reservoir, respectively. Then, the HTS Transwell® plates are incubated at 37° C., 5% CO2 for 1 hour before cell seeding. Caco-2 cell cells are diluted to 6.86×10^5 cells/mL with culture medium, and 50 μL of cell suspension are dispensed into the filter well of the 96-well HTS Transwell® plate. Cells are cultivated for 14-18 days in a cell culture incubator at 37° C., 5% CO2, 95% relative humidity. Cell culture medium is replaced every other day, beginning no later than 24 hours after initial plating.
Preparation of Stock Solutions: 10 mM stock solutions of test compounds arc prepared in DMSO. The stock solutions of positive controls are prepared in DMSO at the concentration of 10 mM. Digoxin and propranolol are used as control compounds in this assay.
Assessment of Cell Monolayer Integrity: Medium is removed from the reservoir and each Transwell® insert and is replaced with prewarmed fresh culture medium. Transepithelial electrical resistance (TEER) across the monolayer is measured using Millicell Epithelial Volt-Ohm measuring system (Millipore, USA). The Plate is returned to the incubator once the measurement is done. The TEER value is calculated according to the following equation: TEER measurement (ohms)×Area of membrane (cm^2)=TEER value (ohm·cm^2). A TEER value greater than 230 ohm·cm^2 indicates a well-qualified Caco-2 monolayer.
Assay Procedure: The Caco-2 plate is removed from the incubator and washed twice with pre-warmed HBSS (10 mM HEPES, pH 7.4), and then incubated at 37° C. for 30 minutes. The stock solutions of control compounds are diluted in DMSO to get 1 mM solutions and then diluted with HBSS (10 mM HEPES, pH 7.4) to get 5 μM working solutions. The stock solutions of the test compounds are diluted in DMSO to get 1 mM solutions and then diluted with HBSS (10 mM HEPES and 4% BSA, pH 7.4) to get 5 μM working solutions. The final concentration of DMSO in the incubation system is 0.5%. To determine the rate of drug transport in the apical to basolateral direction. 75 μL of 5 μM working solutions of test compounds are added to the Transwell® insert (apical compartment) and the wells in the receiver plate (basolateral compartment) are filled with 235 μL of HBSS (10 mM HEPES and 4% BSA, pH 7.4). To determine the rate of drug transport in the basolateral to apical direction, 235 μL of 5 μM working solutions of test compounds are added to the receiver plate wells (basolateral compartment) and then the Transwell® inserts (apical compartment) are filled with 75 μL of HBSS (10 mM HEPES and 4% BSA, pH 7.4). […]

Row | Papp A→B at 2 h, 5 μM [×10⁻⁶ cm/s] | efflux ratio at 2 h, 5 μM | SMILES
1 | 0.4 | 10 to 30 | CCN1CCN(Cc2ccc(Nc3nc4ccc(Oc5ccnc(NC(C)=O)c5)cc4n3C)cc2C(F)(F)F)CC1 [Compound R-1, reference compound]
2 | 7 | 2 to 5 | CN(C)C(=O)Nc1cc(Oc2cnc3nc(Nc4cc(C(F)(F)F)cn(C)c4=O)n(C)c3c2C#N)ccn1 [Compound 1, 3-(4-((7-cyano-1-methyl-2-((1-methyl-2-oxo-5-(trifluoromethyl)-1,2-dihydropyridin-3-yl)amino)-1H-imidazo[4,5-b]pyridin-6-yl)oxy)pyridin-2-yl)-1,1-dimethylurea]
